Results: patent US20060223792A1, “Phenyl and pyridyl LTA4H modulators” (priority 2005, published 2006)

Experiments:
[1] = target: T1, recombinant human LTA4 hydrolase (rhLTA4H) (Homo sapiens, UniProt P09960); assay: Recombinant human LTA4 hydrolase assay for LTA4 hydrolase inhibitor activity; format: biochemical; details: recombinant human LTA4H, LTB4 quantified by enzyme-linked immunoassay; average of one to three determinations; read-out: IC50
T1 construct: made in house; host or cells: Spodoptera frugiperda (Sf-9) cells, baculovirus (pFastBac1)
T1 sequence (P09960 1-611): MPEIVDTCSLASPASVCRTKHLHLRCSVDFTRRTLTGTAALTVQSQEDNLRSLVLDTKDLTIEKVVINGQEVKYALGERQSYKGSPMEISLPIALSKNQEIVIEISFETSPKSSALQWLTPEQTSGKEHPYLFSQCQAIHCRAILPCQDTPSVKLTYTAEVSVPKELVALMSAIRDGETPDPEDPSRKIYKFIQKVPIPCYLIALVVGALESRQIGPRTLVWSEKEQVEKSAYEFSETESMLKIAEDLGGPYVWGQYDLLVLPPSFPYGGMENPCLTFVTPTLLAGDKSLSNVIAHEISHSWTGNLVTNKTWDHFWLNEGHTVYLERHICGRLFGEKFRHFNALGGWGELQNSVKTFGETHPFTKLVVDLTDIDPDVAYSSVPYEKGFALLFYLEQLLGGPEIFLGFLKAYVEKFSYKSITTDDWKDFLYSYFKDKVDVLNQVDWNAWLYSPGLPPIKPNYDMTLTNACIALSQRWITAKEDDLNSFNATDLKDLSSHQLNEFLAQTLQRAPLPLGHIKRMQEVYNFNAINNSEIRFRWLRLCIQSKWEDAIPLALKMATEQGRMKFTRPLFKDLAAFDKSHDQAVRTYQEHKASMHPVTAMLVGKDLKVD
In short: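 Sf-9-expressed rhLTA4H (36 ng) preincubated 10 min at rt with compound in 0.1 M potassium phosphate pH 7.4, 5 mg/mL fatty-acid-free BSA; 9 ng LTA4 free acid added, 10 min at rt in 225 μL. LTB4 measured by enzyme immunoassay; IC50 from 4-parameter fit, mean of one to three determinations.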

[2] = tested on: ex vivo stimulated LTB4 production; assay: Murine arachidonic acid-induced inflammation model: ex vivo stimulated LTB4 production in blood; details: Mus musculus; 30 mg/kg oral gavage, female Balb/c mice; blood taken 3 h after arachidonic acid, stimulated ex vivo with A23187; read-out: % Inh. LTB4
Description: Murine Arachidonic Acid-Induced Inflammation Model
LTA4H inhibitor compounds of the present invention were dissolved in 20% cyclodextran/H2O at a concentration of 3 mg/mL. The solutions were administered by oral gavage to female Balb/c mice weighing approximately 20 grams each (0.2 mL per mouse, 30 mg of LTA4H inhibitor compound per kg). Sixty minutes after being administered an LTA4 inhibitor, each mouse received topical application of 20 μL of arachidonic acid (100 mg/mL in acetone) to the left ear and 20 μL of acetone only to the right ear. After 3 h, the mice were sacrificed, blood was withdrawn in heparinized syringes, and 8 mm ear biopsies were taken. Ear biopsies were weighed to determine edema and then frozen at −80° C. until needed for determination of neutrophil influx.
One hundred-microliter aliquots of heparinized blood were added to wells of a microtiter plate, along with equal volumes of RPMI-1640 medium, and calcium ionophore A23187 was added to each sample well (final concentration=[…]). The microtiter plate contents were incubated for 10 min at 37° C. in a humidified incubator. The reaction was terminated by centrifugation (833×g, 10 min at 4° C.). Supernatants were analyzed for LTB4 by a commercially available enzyme-linked immunoassay (Cayman Chemical Co.) in accordance with the manufacturer's instructions. The percent inhibition of ex vivo stimulated LTB4 production (% Inh. LTB4) was determined by comparison to animals treated identically except that the solution admininstered by oral gavage was devoid of inhibitor compound.

SMILES	IC50 [1]	inhibition at 30 mg/kg [2]
CN(C(=O)Oc1ccc(OCCN2CCC(O)(c3ccccc3)CC2)cc1)c1ccccc1 [Example 40, Methyl-phenyl-carbamic acid 4-[2-(4-hydroxy-4-phenyl-piperidin-1-yl)-ethoxy]-phenyl ester]	73 nM	79%
O=C(O)C1CCN(CCc2ccc(OCCc3ccccc3)cc2)CC1 [Example 81, 1-[2-(4-Phenethyloxy-phenyl)-ethyl]-piperidine-4-carboxylic acid]	19 nM	78%
O=C(O)C1CCN(Cc2ccc(OCCc3ccccc3)cc2)CC1 [Example 96, 1-(4-Phenethyloxy-benzyl)-piperidine-4-carboxylic acid]	10 nM	80%
O=C1CCCN1C1CCN(Cc2ccc(OCCc3ccccc3)cc2)CC1 [Example 99, 1-[1-(4-Phenethyloxy-benzyl)-piperidin-4-yl]-pyrrolidin-2-one]	17 nM	68%
O=C(O)C1CCN(Cc2ccc(OCCCc3ccccc3)cc2)CC1 [Example 112, 1-[4-(3-Phenyl-propoxy)-benzyl]-piperidine-4-carboxylic acid]	4 nM	91%
O=C(O)C1CCN(CCOc2ccc(OCCCc3ccccc3)cc2)CC1 [Example 117, 1-{2-[4-(3-Phenyl-propoxy)-phenoxy]-ethyl}-piperidine-4-carboxylic acid]	51 nM	74%
